Source: patent publication US20230257373A1, “QUORUM SENSING INHIBITORS AND METHODS OF USE” (priority 2020, published 2023)

Target: LuxR (Vibrio harveyi, UniProt P21308)
Test: ITC analysis of LuxR interaction with inhibitors
Format: binding, V. campbellii
Set-up: made in house; host or cells: E. coli BL21(DE3)
From the text: To test the validity of the modelling predictions for PTSP, we performed isothermal titration calorimetry (ITC) to determine the binding affinity of SmcR and LuxR for PTSP. […] We noted that PTSP binding to both LuxR and SmcR had lower entropy and enthalpy compared to SmcR binding to Qstatin. […] Thus, we conclude that the efficacy of PTSP inhibition in vivo in these two Vibrio species correlates to the binding affinity determined in vitro for these two proteins.
SmcR and LuxR were purified as described previously. EMSAs were conducted as described previously using oligonucleotides corresponding to the luxC and vvpE promoter sequences. ITC analysis was conducted using purified LuxR or His-tagged SmcR, each in gel-filtration buffer (25 mM Tris pH 7.5, 300 mM NaCl, 0.5 mM EDTA, 1 mM DTT, 2% DMSO). All molecules analyzed were diluted in the same buffer. The samples were degassed for 10 min by vacuum aspiration. Titrations were performed on a Nano-ITC (TA Instruments). […] Thermograms were analyzed using NanoAnalyze software with the independent binding model.

Chain of LuxR (P21308 whole entry): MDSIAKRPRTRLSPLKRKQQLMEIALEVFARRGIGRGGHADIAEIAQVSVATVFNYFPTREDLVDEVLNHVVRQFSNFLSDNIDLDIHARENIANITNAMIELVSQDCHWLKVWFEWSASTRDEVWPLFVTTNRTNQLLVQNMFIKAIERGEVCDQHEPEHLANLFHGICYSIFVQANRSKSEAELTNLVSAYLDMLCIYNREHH

Compound: O=S(=O)(c1cccs1)n1ccc(-c2ccccc2)n1 [Compound 10B]
- Ka: 2.3e+06 M⁻¹
- ΔG: -8.626 kcal/mol
- ΔH: -32.529 kcal/mol
- ΔS: −335.40 J/mol · K
- −TΔS: 23.9 kcal/mol
- Kd (25° C.): 513 nM
